Experimental data: patent US12029726B1, “Composition and method of treating conditions associated with extracellular matrix dysfunction by administering micronutrient composition” (priority 2023, dated 2024)

Test system: cultured human chondrocytes and synovial fibroblasts
Assay: LPS-induced arthritic processes in cultured human synovial cells (IL6, MMP13 release; Col2, Aggr, HA content), summary
Assay type: cell-based
Conditions: added to cell culture medium with LPS
Description: Inflammation process was initiated by additions of bacterial lipopolysaccharide (LPS) to cell culture medium. Tested parameters included cellular release of interleukin 6 (IL6) as an indicator of induced inflammation, cell culture accumulation of specific extracellular matrix (ECM) components, such as collagen type II (Col2), aggrecan (Aggr) and hyaluronic acid (HA), and release of matrix metalloproteinase 13 (MMP13) as an indicator of cartilage digesting process. Addition of LPS to cell cultures induced inflammation process characterized by dramatic increase in cellular release of IL6 and MMP13 and reduction in cell culture content of Col2, Aggr and HA.
Experiments: For the experiments cells were seeded in 96 well plastic cell culture plates covered with fibronectin (Greiner Bio-One) and grown to a confluent layer at 37° C. and 5% CO2 in corresponding cell culture medium. Cells were supplemented with 3 mcg/ml bacterial lipopolysaccharide (LPS, inflammation inducing treatment) and micronutrient composition were applied for indicated period in growth medium as indicated in the corresponding figure legends. At the end of the incubation cultured cells layers were washed twice with phosphate buffered saline (PBS) and treated in two ways: for the exposition of extracellular matrix (ECM) cells were lysed by 3 min incubation with 0.5% Triton X100/PBS which was followed by 3 min incubation with 25 mM NH4OH/PBS at room temperature or the cells were fixed by using 3% formaldehyde/PBS for one hour at 4° C. […]
Aggrecan, Collagen type II and Hyaluronic Acid content in 96 well plates prepared as described above, which is either exposed ECM or in fixed cells, was assayed by standard sandwich type immunoassay (ELISA, all reagents from Sigma-Aldrich) using rabbit polyclonal anti aggrecan, rabbit polyclonal anti collagen type II antibodies or biotinylated Hyaluronic Acid binding protein as primary treatment and goat anti rabbit IgG antibodies conjugated with horse radish peroxidase (HRP) or HRP-conjugated High Density Streptavidin as secondary treatment, respectively. Assayed component content was estimated by color changing reaction of HRP substrate (TMB substrate solution, Sigma-Aldrich) measured as 450 nm optical density using microplate optical density reader (Molecular Devices). […]
Effects of Micronutrient composition on Release of Inflammation Markers in Cultured Human Synovial Cells: Inflammation process was induced in human chondrocytes cultured in 96 well plates with LPS as described above. […] At the end of indicated incubation period interleukin 6 (IL6) and matrix metalloproteinase 13 (MMP13) levels in conditioned cell culture media were measured by ELISA using assay kits (R&D Systems) in accordance with manufacturer's protocol. […]

Row | SMILES | reversal of LPS-induced arthritic processes (increase in IL6 and MMP13 release, reduction in Col2, Aggr and HA content)
1 | O=C(O)CCC(=O)C(=O)O [Alpha Keto-Glutarate] | reversed to different degrees
2 | O=C([O-])/C=C/C(=O)[O-].[Fe+2] [Iron (II) Fumarate] | reversed to different degrees
3 | NC(=O)CC[C@H](N)C(=O)O [L-Glutamine] | reversed to different degrees
4 | C[S+](CC[C@H](N)C(=O)[O-])C[C@H]1O[C@@H](n2cnc3c(N)ncnc32)[C@H](O)[C@@H]1O (stereo partly shown) [S-Adenosyl Methionine] | reversed to different degrees
